# Earlier results as cited in patent publication US20230000917A1, “TREATMENT OF HEPATITIS B VIRUS (HBV) INFECTION” (UCL BUSINESS LTD, priority 2019, published 2023).
# Tests used:
# [1] = in vivo
# [2] = in vivo; remark: listed apart in the source
# [3] = test system: macrophage foam cell formation and atherosclerosis progression; conditions: oral administration, animal models
SMILES,oral bioavailability [1],plasma VLDL-cholesterol [2],plasma total triglyceride [2],macrophage foam cell formation and atherosclerosis progression [3]
CC(C)c1cc(C(C)C)c(CC(=O)NS(=O)(=O)Oc2c(C(C)C)cccc2C(C)C)c(C(C)C)c1 [Avasimibe],orally bioavailable,significantly reduce,significantly reduce,
"CSc1cc(C)nc(SC)c1NC(=O)CN1CCN(CCSc2nc3ccccc3[nH]2)CC1.Cl.Cl [K604, 4-[2-(1H-Benzimidazol-2-ylthio)ethyl]-N-[6-methyl-2,4-bis(methylthio)-3-pyridinyl]-1-piperazineacetamide dihydrochloride]",,,,promising results
